The NIST ThermoML archive (doi:10.1021/je200811n)

Conditions: Hot wire method

F/C=C/C(F)(F)F [trans-1,3,3,3-tetrafluoropropene]
Conditions | thermal conductivity [W/m/K]
281.63 K, 15232 kPa, Liquid | 0.08862
281.67 K, 23307 kPa, Liquid | 0.09249
281.68 K, 20203 kPa, Liquid | 0.09077
281.7 K, 445 kPa, Liquid | 0.08035
281.71 K, 5379 kPa, Liquid | 0.08327
281.72 K, 15226 kPa, Liquid | 0.08837
281.76 K, 10284 kPa, Liquid | 0.08598
281.8 K, 5372 kPa, Liquid | 0.08315
281.82 K, 242 kPa, Gas | 0.01258
281.84 K, 200 kPa, Gas | 0.01237
281.86 K, 99 kPa, Gas | 0.01213
281.86 K, 141 kPa, Gas | 0.01223
282.04 K, 23299 kPa, Liquid | 0.09237
282.06 K, 242 kPa, Gas | 0.01258
282.06 K, 20222 kPa, Liquid | 0.09082
282.07 K, 438 kPa, Liquid | 0.07934
282.1 K, 200 kPa, Gas | 0.01234
282.13 K, 98 kPa, Gas | 0.01208
282.13 K, 140 kPa, Gas | 0.01217
282.14 K, 434 kPa, Liquid | 0.07983
282.14 K, 10286 kPa, Liquid | 0.08591
282.15 K, 23304 kPa, Liquid | 0.09213
282.17 K, 20224 kPa, Liquid | 0.09064
282.2 K, 5363 kPa, Liquid | 0.08314
282.21 K, 15223 kPa, Liquid | 0.08817
282.28 K, 10288 kPa, Liquid | 0.08566
282.31 K, 242 kPa, Gas | 0.01258
282.32 K, 5352 kPa, Liquid | 0.08296
282.36 K, 200 kPa, Gas | 0.0123
282.4 K, 138 kPa, Gas | 0.01213
282.52 K, 245 kPa, Gas | 0.01231
282.54 K, 431 kPa, Liquid | 0.07937
282.54 K, 23312 kPa, Liquid | 0.09188
282.58 K, 200 kPa, Gas | 0.01226
282.58 K, 20215 kPa, Liquid | 0.09057
282.63 K, 428 kPa, Liquid | 0.07955
282.64 K, 15228 kPa, Liquid | 0.08812
282.67 K, 145 kPa, Gas | 0.01228
282.69 K, 23303 kPa, Liquid | 0.09187
282.7 K, 10287 kPa, Liquid | 0.0852
282.73 K, 20227 kPa, Liquid | 0.09025
282.76 K, 103 kPa, Gas | 0.01237
282.77 K, 5352 kPa, Liquid | 0.08245
282.79 K, 15232 kPa, Liquid | 0.0878
282.86 K, 10284 kPa, Liquid | 0.08516
282.9 K, 243 kPa, Gas | 0.01231
282.94 K, 5351 kPa, Liquid | 0.08227
282.95 K, 199 kPa, Gas | 0.01234
283.04 K, 425 kPa, Liquid | 0.07934
283.07 K, 143 kPa, Gas | 0.01233
283.13 K, 23323 kPa, Liquid | 0.0916
283.15 K, 424 kPa, Liquid | 0.0789
283.17 K, 20222 kPa, Liquid | 0.08992
283.19 K, 101 kPa, Gas | 0.01241
283.23 K, 15235 kPa, Liquid | 0.08758
283.26 K, 280 kPa, Gas | 0.01243
283.3 K, 242 kPa, Gas | 0.01229
283.33 K, 10277 kPa, Liquid | 0.08464
283.35 K, 20230 kPa, Liquid | 0.08937
283.37 K, 199 kPa, Gas | 0.01232
283.41 K, 5347 kPa, Liquid | 0.08183
283.44 K, 15228 kPa, Liquid | 0.08686
283.5 K, 142 kPa, Gas | 0.01236
283.52 K, 10279 kPa, Liquid | 0.08429
283.62 K, 5351 kPa, Liquid | 0.08173
283.63 K, 100 kPa, Gas | 0.01246
283.64 K, 280 kPa, Gas | 0.0125
283.73 K, 242 kPa, Gas | 0.01238
283.81 K, 200 kPa, Gas | 0.01236
283.96 K, 140 kPa, Gas | 0.01236
284.06 K, 280 kPa, Gas | 0.01255
284.11 K, 98 kPa, Gas | 0.01249
284.18 K, 242 kPa, Gas | 0.01239
284.26 K, 200 kPa, Gas | 0.01238
284.45 K, 139 kPa, Gas | 0.01242
284.62 K, 97 kPa, Gas | 0.0125
291.03 K, 97 kPa, Gas | 0.01317
291.05 K, 154 kPa, Gas | 0.0132
291.06 K, 237 kPa, Gas | 0.01331
291.26 K, 96 kPa, Gas | 0.013
291.28 K, 154 kPa, Gas | 0.01305
291.28 K, 236 kPa, Gas | 0.01323
291.51 K, 234 kPa, Gas | 0.01316
291.52 K, 95 kPa, Gas | 0.01287
291.52 K, 155 kPa, Gas | 0.01297
291.76 K, 232 kPa, Gas | 0.01312
291.79 K, 95 kPa, Gas | 0.01281
291.79 K, 155 kPa, Gas | 0.01291
292.02 K, 231 kPa, Gas | 0.01307
292.06 K, 94 kPa, Gas | 0.01276
292.06 K, 155 kPa, Gas | 0.01287
292.13 K, 314 kPa, Gas | 0.01299
292.21 K, 238 kPa, Gas | 0.01305
292.32 K, 154 kPa, Gas | 0.01313
292.44 K, 97 kPa, Gas | 0.01319
292.5 K, 311 kPa, Gas | 0.01305
292.51 K, 336 kPa, Gas | 0.0131
292.59 K, 236 kPa, Gas | 0.01303
292.72 K, 154 kPa, Gas | 0.01308
292.85 K, 96 kPa, Gas | 0.01324
292.88 K, 308 kPa, Gas | 0.01303
292.89 K, 333 kPa, Gas | 0.01312
292.98 K, 235 kPa, Gas | 0.01313
293.14 K, 154 kPa, Gas | 0.01304
293.29 K, 330 kPa, Gas | 0.01314
293.3 K, 95 kPa, Gas | 0.01322
293.3 K, 306 kPa, Gas | 0.0131
293.32 K, 349 kPa, Gas | 0.01317
293.41 K, 233 kPa, Gas | 0.01314
293.54 K, 400 kPa, Gas | 0.01316
293.58 K, 155 kPa, Gas | 0.01322
293.68 K, 347 kPa, Gas | 0.01318
293.72 K, 327 kPa, Gas | 0.01313

Liquid
Conditions | thermal conductivity [W/m/K]
283.15 K | 0.07962
293.15 K | 0.07611
